This note sets out measurements from patent publication US20250312352A1, “GLP-1R MODULATING COMPOUNDS” (Gilead Sciences, Inc., priority 2021, published 2025).

The structures appear in SMILES notation.

In general, EC50 refers to the concentration that produces a half-maximal response.

In this assay the target is T1, GLP-1R (Homo sapiens, UniProt P43220).
T1 construct: host or cells: CHO cells
T1 sequence (P43220 24-463): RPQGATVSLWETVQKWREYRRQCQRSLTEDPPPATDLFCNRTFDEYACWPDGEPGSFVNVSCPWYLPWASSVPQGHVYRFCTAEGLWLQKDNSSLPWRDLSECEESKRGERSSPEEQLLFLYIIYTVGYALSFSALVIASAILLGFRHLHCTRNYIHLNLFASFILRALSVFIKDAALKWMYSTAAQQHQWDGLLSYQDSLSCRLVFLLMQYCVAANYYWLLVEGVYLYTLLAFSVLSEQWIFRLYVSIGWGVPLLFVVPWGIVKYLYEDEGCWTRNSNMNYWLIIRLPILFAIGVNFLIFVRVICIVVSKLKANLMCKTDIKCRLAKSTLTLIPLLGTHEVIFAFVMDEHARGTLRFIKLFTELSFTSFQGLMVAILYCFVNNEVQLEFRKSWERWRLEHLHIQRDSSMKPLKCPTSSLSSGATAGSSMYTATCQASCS
Description: GLP-1R activation cAMP assay (Assay 1 or Assay 2). As to conditions: cAMP increase in CHO cells stably expressing GLP-1R; compounds run on one of the two cAMP assays. The format is cell-based. In short, it runs like this: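 CHO cells stably expressing human GLP-1R were incubated 1 h in HBSS/20 mM HEPES/0.1% BSA, then exposed to 10-point agonist dilutions for 30 min at 37 °C. cAMP increase was measured with an HTRF Gs dynamic kit; EC50 from sigmoidal fit of response versus log concentration.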
On the technique in general: Changes in cAMP serve as a functional read-out for many G protein-coupled receptors.
`CC1(C#Cc2cnc(COc3cccc(-c4cc(F)c(Cc5nc6ccc(C(=O)O)cc6n5C[C@@H]5CCO5)cc4F)n3)s2)COC1` [Example 115, (S)-2-(2,5-difluoro-4-(6-((5-((3-methyloxetan-3-yl)ethynyl)thiazol-2-yl)methoxy)pyridin-2-yl)benzyl)-1-(oxetan-2-ylmethyl)-1H-benzo[d]imidazole-6-carboxylic acid] gave an EC50 of 0.07 nM. In other words, the picomolar range.
Then `Cn1ccc(C#Cc2ccc(COc3cccc(-c4cc(F)c(Cc5nc6ccc(C(=O)O)cc6n5C[C@@H]5CCO5)cc4F)n3)c(F)c2)n1` [Example 134, (S)-2-(2,5-difluoro-4-(6-((2-fluoro-4-((1-methyl-1H-pyrazol-3-yl)ethynyl)benzyl)oxy)pyridin-2-yl)benzyl)-1-(oxetan-2-ylmethyl)-1H-benzo[d]imidazole-6-carboxylic acid], with 0.6 nM; and `COCCn1c(Cc2cc(F)c(-c3cccc(OCc4ccc(C#Cc5cncn5C)cc4F)n3)cc2F)nc2ccc(C(=O)O)cc21` [Example 233, 2-(2,5-difluoro-4-(6-((2-fluoro-4-((1-methyl-1H-imidazol-5-yl)ethynyl)benzyl)oxy)pyridin-2-yl)benzyl)-1-(2-methoxyethyl)-1H-benzo[d]imidazole-6-carboxylic acid], with 1.2 nM.
Then `O=C(O)c1cc(F)c2nc(Cc3cc(F)c(-c4cccc(OCc5ncc(C#CC6(CF)CC6)cc5Cl)n4)cc3F)n(C[C@@H]3CCO3)c2c1` [Example 380, (S)-2-(4-(6-((3-chloro-5-((1-(fluoromethyl)cyclopropyl)ethynyl)pyridin-2-yl)methoxy)pyridin-2-yl)-2,5-difluorobenzyl)-4-fluoro-1-(oxetan-2-ylmethyl)-1H-benzo[d]imidazole-6-carboxylic acid], with 0.078 nM.
The figure for `CC(C)(C)C#Cc1cnc(COc2cccc(-c3cc(F)c(Cc4nc5ccc(C(=O)O)cc5n4C[C@@H]4CCO4)cc3F)n2)s1` [Example 320, (S)-2-(4-(6-((5-(3,3-dimethylbut-1-yn-1-yl)thiazol-2-yl)methoxy)pyridin-2-yl)-2,5-difluorobenzyl)-1-(oxetan-2-ylmethyl)-1H-benzo[d]imidazole-6-carboxylic acid] is 0.537 nM; for `N#Cc1nc(COc2cccc(-c3cc(F)c(Cc4nc5ccc(C(=O)O)cc5n4C[C@@H]4CCO4)cc3F)n2)cs1` [Example 170, (S)-2-(4-(6-((2-cyanothiazol-4-yl)methoxy)pyridin-2-yl)-2,5-difluorobenzyl)-1-(oxetan-2-ylmethyl)-1H-benzo[d]imidazole-6-carboxylic acid] it is 8.29 nM.
`COCCn1c(Cc2cc(F)c(-c3cccc(OCc4cnn(-c5ccccc5)c4)n3)cc2F)nc2ccc(C(=O)O)cc21` [Example 121, 2-(2,5-difluoro-4-(6-((1-phenyl-1H-pyrazol-4-yl)methoxy)pyridin-2-yl)benzyl)-1-(2-methoxyethyl)-1H-benzo[d]imidazole-6-carboxylic acid]: the midpoint of the response, the EC50, lay at 730 nM.
Then `CCOc1nnc(COc2nc(-c3ccc(Cc4nc5ccc(C(=O)O)cc5n4[C@@H]4COCC4(C)C)c(F)c3)ccc2F)s1` [Example 397, (S)-1-(4,4-dimethyltetrahydrofuran-3-yl)-2-(4-(6-((5-ethoxy-1,3,4-thiadiazol-2-yl)methoxy)-5-fluoropyridin-2-yl)-2-fluorobenzyl)-1H-benzo[d]imidazole-6-carboxylic acid], with 0.497 nM; and `Cn1cc(C#Cc2cnc(COc3cccc(-c4cc(F)c(Cc5nc6ccc(C(=O)O)cc6n5C[C@@H]5CCO5)cc4F)n3)c(F)c2)cn1` [Example 143, (S)-2-(2,5-difluoro-4-(6-((3-fluoro-5-((1-methyl-1H-pyrazol-4-yl)ethynyl)pyridin-2-yl)methoxy)pyridin-2-yl)benzyl)-1-(oxetan-2-ylmethyl)-1H-benzo[d]imidazole-6-carboxylic acid], with 0.14 nM; and `O=C(O)c1ccc2nc(Cc3cc(F)c(-c4cccc(OCc5ncc(C#Cc6cncs6)s5)n4)cc3F)n(C[C@@H]3CCO3)c2c1` [Example 116, (S)-2-(2,5-difluoro-4-(6-((5-(thiazol-5-ylethynyl)thiazol-2-yl)methoxy)pyridin-2-yl)benzyl)-1-(oxetan-2-ylmethyl)-1H-benzo[d]imidazole-6-carboxylic acid], with 0.15 nM.
Then `CC(C)(C#N)C#Cc1cnc(COc2cccc(-c3cc(F)c(Cc4nc5ccc(C(=O)O)cc5n4C[C@@H]4CCO4)cc3F)n2)s1` [Example 328, (S)-2-(4-(6-((5-(3-cyano-3-methylbut-1-yn-1-yl)thiazol-2-yl)methoxy)pyridin-2-yl)-2,5-difluorobenzyl)-1-(oxetan-2-ylmethyl)-1H-benzo[d]imidazole-6-carboxylic acid], with 0.342 nM; and `O=C(O)c1ccc2nc(Cc3cc(F)c(-c4cccc(OCc5cncs5)n4)cc3F)n(C[C@@H]3CCO3)c2c1` [Example 167, (S)-2-(2,5-difluoro-4-(6-(thiazol-5-ylmethoxy)pyridin-2-yl)benzyl)-1-(oxetan-2-ylmethyl)-1H-benzo[d]imidazole-6-carboxylic acid], with 0.87 nM.
Then `O=C(O)c1ccc2nc(Cc3cc(F)c(-c4cccc(OCc5ccn(CC(F)F)n5)n4)cc3F)n(C[C@@H]3CCO3)c2c1` [Example 64, (S)-2-(4-(6-((1-(2,2-difluoroethyl)-1H-pyrazol-3-yl)methoxy)pyridin-2-yl)-2,5-difluorobenzyl)-1-(oxetan-2-ylmethyl)-1H-benzo[d]imidazole-6-carboxylic acid], with 6.38 nM; and `CNC(=O)c1cc(F)c(COc2cccc(-c3cc(F)c(Cc4nc5ccc(C(=O)O)cc5n4C[C@@H]4CCO4)cc3F)n2)cn1` [Example 243, 2-[[2,5-difluoro-4-[6-[[4-fluoro-6-(methylcarbamoyl)-3-pyridyl]methoxy]-2-pyridyl]phenyl]methyl]-3-[[(2S)-oxetan-2-yl]methyl]benzimidazole-5-carboxylic acid], with 0.17 nM; and `CC1(C#Cc2nnc(COc3cccc(-c4cc(F)c(Cc5nc6ccc(C(=O)O)cc6n5C[C@@H]5CCO5)cc4F)n3)s2)CC1` [Example 321, (S)-2-(2,5-difluoro-4-(6-((5-((1-methylcyclopropyl)ethynyl)-1,3,4-thiadiazol-2-yl)methoxy)pyridin-2-yl)benzyl)-1-(oxetan-2-ylmethyl)-1H-benzo[d]imidazole-6-carboxylic acid], with 0.246 nM.
On to `CCOC(=O)N1Cc2ccc(COc3cccc(-c4cc(F)c(Cc5nc6ccc(C(=O)O)cc6n5C[C@@H]5CCO5)cc4F)n3)cc2C1` [Example 435, (S)-2-(4-(6-((2-(ethoxycarbonyl)isoindolin-5-yl)methoxy)pyridin-2-yl)-2,5-difluorobenzyl)-1-(oxetan-2-ylmethyl)-1H-benzo[d]imidazole-6-carboxylic acid], for which a half-maximal effect (EC50) was put at 0.427 nM. This EC50 lies about 1.7-fold higher than the previous one.
Then `COc1nnc(COc2cccc(-c3cc(F)c(Cc4nc5c(F)cc(C(=O)O)cc5n4CC4(CF)CC4)c(F)c3F)n2)s1` [Example 280, 4-fluoro-1-((1-(fluoromethyl)cyclopropyl)methyl)-2-(2,3,6-trifluoro-4-(6-((5-methoxy-1,3,4-thiadiazol-2-yl)methoxy)pyridin-2-yl)benzyl)-1H-benzo[d]imidazole-6-carboxylic acid], with 0.067 nM; and `CCOc1nnc(COc2cccc(-c3cc(F)c(Cc4nc5ccc(C(=O)O)cc5n4CC4(CF)CC4)cc3F)n2)s1` [Example 266, 2-(4-(6-((5-ethoxy-1,3,4-thiadiazol-2-yl)methoxy)pyridin-2-yl)-2,5-difluorobenzyl)-1-((1-(fluoromethyl)cyclopropyl)methyl)-1H-benzo[d]imidazole-6-carboxylic acid], with 0.367 nM.
Consider `O=C(O)c1ccc2nc(Cc3cc(F)c(-c4cccc(OCc5cc6n(n5)CC5(CC5)C6)n4)cc3F)n(C[C@@H]3CCO3)c2c1` [Example 75, (S)-2-(4-(6-((4′,6′-dihydrospiro[cyclopropane-1,5′-pyrrolo[1,2-b]pyrazol]-2′-yl)methoxy)pyridin-2-yl)-2,5-difluorobenzyl)-1-(oxetan-2-ylmethyl)-1H-benzo[d]imidazole-6-carboxylic acid], for which the EC50 came out at 0.61 nM. This EC50 is about 1.7-fold higher than that of the compound before.
Then `Cc1nc(COc2cccc(-c3cc(F)c(Cc4nc5ccc(C(=O)O)cc5n4C[C@@H]4CCO4)cc3F)n2)no1` [Example 17, (S)-2-(2,5-difluoro-4-(6-((5-methyl-1,2,4-oxadiazol-3-yl)methoxy)pyridin-2-yl)benzyl)-1-(oxetan-2-ylmethyl)-1H-benzo[d]imidazole-6-carboxylic acid], with 7 nM.
In the case of `O=C(O)c1ccc2nc(Cc3cc(F)c(-c4cccc(OCc5ncc(C#CC6(C(F)F)CC6)s5)n4)cc3F)n(C[C@@H]3CCO3)c2c1` [Example 326, (S)-2-(4-(6-((5-((1-(difluoromethyl)cyclopropyl)ethynyl)thiazol-2-yl)methoxy)pyridin-2-yl)-2,5-difluorobenzyl)-1-(oxetan-2-ylmethyl)-1H-benzo[d]imidazole-6-carboxylic acid], the EC50 turned out to be 0.451 nM.
The figure for `CNC(=O)c1ccc(COc2cccc(-c3cc(F)c(Cc4nc5ccc(C(=O)O)cc5n4C[C@@H]4CCO4)cc3F)n2)cn1` [Example 43, (S)-2-(2,5-difluoro-4-(6-((6-(methylcarbamoyl)pyridin-3-yl)methoxy)pyridin-2-yl)benzyl)-1-(oxetan-2-ylmethyl)-1H-benzo[d]imidazole-6-carboxylic acid] is 0.3 nM; for `Cc1cc(Cc2nc3ccc(C(=O)O)cc3n2[C@@H]2COCC2(C)C)c(Cl)cc1-c1ccc(F)c(OCc2ncc(C(F)(F)F)s2)n1` [Example 371, (S)-2-(2-chloro-4-(5-fluoro-6-((5-(trifluoromethyl)thiazol-2-yl)methoxy)pyridin-2-yl)-5-methylbenzyl)-1-(4,4-dimethyltetrahydrofuran-3-yl)-1H-benzo[d]imidazole-6-carboxylic acid] it is 1.77 nM.
